Test results: BindingDB's records for doi:10.1021/jm050825p (National Institute of Allergy and Infectious Diseases, 2006)

Columns and labels:
[1] = target: T1, 3-oxoacyl-[acyl-carrier-protein] synthase 1 (Escherichia coli (strain K12), UniProt P0A953); assay: Inhibitory activity against FabB from Escherichia coli ANSI
T1 sequence (P0A953 whole entry): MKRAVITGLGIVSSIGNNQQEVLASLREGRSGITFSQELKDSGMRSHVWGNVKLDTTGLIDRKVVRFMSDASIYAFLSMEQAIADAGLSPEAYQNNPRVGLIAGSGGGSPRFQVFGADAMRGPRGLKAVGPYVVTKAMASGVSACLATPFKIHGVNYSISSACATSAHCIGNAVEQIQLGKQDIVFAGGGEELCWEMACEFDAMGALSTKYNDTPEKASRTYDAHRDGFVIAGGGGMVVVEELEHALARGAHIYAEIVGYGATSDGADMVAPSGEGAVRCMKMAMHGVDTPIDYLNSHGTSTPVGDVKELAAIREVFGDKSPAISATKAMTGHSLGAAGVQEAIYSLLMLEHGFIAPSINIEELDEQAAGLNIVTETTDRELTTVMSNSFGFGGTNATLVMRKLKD

[2] = target: T2, 3-oxoacyl-[acyl-carrier-protein] synthase 2 (Mycobacterium tuberculosis (strain ATCC 25618 / H37Rv), UniProt P9WQD7); assay: Inhibitory activity against KasB from Mycobacterium tuberculosis H37Rv
T2 sequence (P9WQD7 whole entry): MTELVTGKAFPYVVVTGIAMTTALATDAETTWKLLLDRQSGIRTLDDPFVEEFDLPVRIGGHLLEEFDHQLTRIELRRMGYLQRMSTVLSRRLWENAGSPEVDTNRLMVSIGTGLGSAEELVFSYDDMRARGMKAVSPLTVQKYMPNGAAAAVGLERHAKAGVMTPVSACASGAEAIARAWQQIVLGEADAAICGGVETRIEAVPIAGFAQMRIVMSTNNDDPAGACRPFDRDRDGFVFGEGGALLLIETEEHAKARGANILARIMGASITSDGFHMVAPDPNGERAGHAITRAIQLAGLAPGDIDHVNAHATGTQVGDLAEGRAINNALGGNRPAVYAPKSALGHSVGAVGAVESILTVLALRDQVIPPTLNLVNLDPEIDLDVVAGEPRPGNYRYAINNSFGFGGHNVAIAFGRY

[3] = target: T3, 3-oxoacyl-[acyl-carrier-protein] synthase 3 (Escherichia coli, UniProt C3TDZ2); assay: Inhibitory activity against FabH from Escherichia coli ANSI
T3 sequence (C3TDZ2 whole entry): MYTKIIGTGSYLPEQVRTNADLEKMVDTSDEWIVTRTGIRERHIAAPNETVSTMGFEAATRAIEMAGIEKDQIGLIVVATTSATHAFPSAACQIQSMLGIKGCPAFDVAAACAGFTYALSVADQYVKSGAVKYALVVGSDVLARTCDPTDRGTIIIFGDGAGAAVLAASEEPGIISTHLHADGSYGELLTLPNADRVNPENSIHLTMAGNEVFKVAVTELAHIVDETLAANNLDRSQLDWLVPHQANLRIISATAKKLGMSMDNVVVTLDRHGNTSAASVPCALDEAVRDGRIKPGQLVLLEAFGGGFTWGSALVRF

[4] = target: T4, 3-oxoacyl-[acyl-carrier-protein] synthase 3 (Mycobacterium tuberculosis (strain ATCC 25618 / H37Rv), UniProt P9WNG3); assay: Inhibitory activity against FabH from Mycobacterium tuberculosis H37Rv
T4 sequence (P9WNG3 whole entry): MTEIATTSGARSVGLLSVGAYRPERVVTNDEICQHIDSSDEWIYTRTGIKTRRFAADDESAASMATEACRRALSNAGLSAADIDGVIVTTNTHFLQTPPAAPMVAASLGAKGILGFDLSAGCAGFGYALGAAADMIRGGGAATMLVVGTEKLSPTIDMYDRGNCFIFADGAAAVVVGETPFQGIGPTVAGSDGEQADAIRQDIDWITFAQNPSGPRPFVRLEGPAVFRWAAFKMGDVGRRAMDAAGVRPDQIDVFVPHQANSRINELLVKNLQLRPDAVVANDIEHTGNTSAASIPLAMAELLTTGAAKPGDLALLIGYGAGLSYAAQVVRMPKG

SMILES | IC50 [1] | IC50 [2] | IC50 [3] | IC50 [4]
CCCCCC(C)C1(C)SC(=O)C(C)C1=O (stereo not given) [3,5-dimethyl-4-hydroxy-5-(1-methylhexyl)-5H-thiophen-2-one] | > 1000 µM | > 1000 µM | > 1000 µM | > 1000 µM
CCC(C)C1(C)SC(=O)C(C)C1=O (stereo not given) [3,5-dimethyl-4-hydroxy-5-(1-methylpropyl)-5H-thiophen-2-one] |  |  |  | > 100 µM
CC1C(=O)SC(C)(C(C)c2ccccc2)C1=O (stereo not given) [3,5-dimethyl-4-hydroxy-5-(1-phenylethyl)-5H-thiophen-2-one] | > 1000 µM | > 1000 µM | > 1000 µM | > 1000 µM
Cc1cc(C)c(CC2(C)SC(=O)C(C)C2=O)c(C)c1 (stereo not given) [3,5-dimethyl-4-hydroxy-5-(2,4,6-trimethylbenzyl)-5H-thiophen-2-one] | > 1000 µM | > 1000 µM | > 1000 µM | > 1000 µM
COc1ccccc1CC1(C)SC(=O)C(C)C1=O (stereo not given) [3,5-dimethyl-4-hydroxy-5-(2-methoxybenzyl)-5H-thiophen-2-one] | > 1000 µM | > 1000 µM | > 1000 µM | > 100 µM
Cc1ccccc1CC1(C)SC(=O)C(C)C1=O (stereo not given) [3,5-dimethyl-4-hydroxy-5-(2-methylbenzyl)-5H-thiophen-2-one] | > 1000 µM | > 1000 µM | > 1000 µM | > 1000 µM
Cc1cccc(CC2(C)SC(=O)C(C)C2=O)c1 (stereo not given) [3,5-dimethyl-4-hydroxy-5-(3-methylbenzyl)-5H-thiophen-2-one] | > 1000 µM | > 1000 µM | > 1000 µM | > 1000 µM
CC(C)CCC1(C)SC(=O)C(C)C1=O (stereo not given) [3,5-dimethyl-4-hydroxy-5-(3-methylbutyl)-5H-thiophen-2-one] | > 1000 µM | > 1000 µM | > 1000 µM | > 1000 µM
CC1C(=O)SC(C)(CCCc2ccccc2)C1=O (stereo not given) [3,5-dimethyl-4-hydroxy-5-(3-phenylpropyl)-5H-thiophen-2-one] | > 1000 µM | > 1000 µM | > 1000 µM | > 1000 µM
CC1C(=O)SC(C)(Cc2cccc(C(F)(F)F)c2)C1=O (stereo not given) [3,5-dimethyl-4-hydroxy-5-(3-trifluoromethylbenzyl)-5H-thiophen-2-one] | > 1000 µM | > 1000 µM | > 1000 µM | > 1000 µM
Cc1ccc(CC2(C)SC(=O)C(C)C2=O)cc1 (stereo not given) [3,5-dimethyl-4-hydroxy-5-(4-methylbenzyl)-5H-thiophen-2-one] | > 1000 µM | > 1000 µM | > 1000 µM | > 1000 µM
CC1C(=O)SC(C)(Cc2ccc([N+](=O)[O-])cc2)C1=O (stereo not given) [3,5-dimethyl-4-hydroxy-5-(4-nitrobenzyl)-5H-thiophen-2-one] | > 1000 µM | > 1000 µM | > 1000 µM | > 1000 µM
CC1C(=O)SC(C)(Cc2ccc(C(F)(F)F)cc2)C1=O (stereo not given) [3,5-dimethyl-4-hydroxy-5-(4-trifluoromethylbenzyl)-5H-thiophen-2-one] |  |  |  | > 100 µM
CC/C=C/CC1(C)SC(=O)C(C)C1=O (stereo not given) [3,5-dimethyl-4-hydroxy-5-((E)-pent-2-enyl)-5H-thiophen-2-one] | > 1000 µM | > 1000 µM | > 1000 µM | > 1000 µM
CC[C@H](C)CC1(C)SC(=O)C(C)C1=O (stereo partly drawn) [3,5-dimethyl-4-hydroxy-5-((S)2-methylbutyl)-5H-thiophen-2-one] |  |  | > 100 µM | 
CC1C(=O)SC(C)(Cc2ccc3ccccc3c2)C1=O (stereo not given) [3,5-dimethyl-4-hydroxy-5-(naphthalen-2-ylmethyl)-5H-thiophen-2-one] | > 1000 µM | > 1000 µM | > 1000 µM | > 100 µM
CCCCCCCCCC1(C)SC(=O)C(C)C1=O (stereo not given) [3,5-dimethyl-4-hydroxy-5-nonyl-5H-thiophen-2-one] | > 1000 µM | > 1000 µM | > 100 µM | > 100 µM
C=CCCCCCCC1(C)SC(=O)C(C)C1=O (stereo not given) [3,5-dimethyl-4-hydroxy-5-oct-7-enyl-5H-thiophen-2-one] | > 1000 µM | > 1000 µM | > 1000 µM | > 1000 µM

SMILES | IC50 [1] | IC50 [2] | IC50 [3] | IC50 [4]
CC1C(=O)SC(C)(CCc2ccccc2)C1=O (stereo not given) [3,5-dimethyl-4-hydroxy-5-phenethyl-5H-thiophen-2-one] | > 1000 µM | > 1000 µM | > 1000 µM | > 1000 µM
CCCCCCCCCCCCCCC1(C)SC(=O)C(C)C1=O (stereo not given) [3,5-dimethyl-4-hydroxy-5-tetradecyl-5H-thiophen-2-one] | > 100 µM |  | 100 µM | 80 µM
CCCCCCCCCCCCCC1(C)SC(=O)C(C)C1=O (stereo not given) [3,5-dimethyl-4-hydroxy-5-tridecyl-5H-thiophen-2-one] | > 100 µM |  | 100 µM | 80 µM
CCCCCCCCCCCC1(C)SC(=O)C(C)C1=O (stereo not given) [3,5-dimethyl-4-hydroxy-5-undecyl-5H-thiophen-2-one] | > 1000 µM | > 1000 µM | > 100 µM | 
Cc1ccc(C)c(CC2(C)SC(=O)C(C)C2=O)c1 (stereo not given) [3,5-dimethyl-5-(2,5-dimethylbenzyl)-4-hydroxy-5H-thiophen-2-one] | > 1000 µM | > 1000 µM | > 1000 µM | > 1000 µM
CCCCC(CC)CC1(C)SC(=O)C(C)C1=O (stereo not given) [3,5-dimethyl-5-(2-ethylhexyl)-4-hydroxy-5H-thiophen-2-one] | > 1000 µM | > 1000 µM | > 1000 µM | > 1000 µM
COc1cc(CC2(C)SC(=O)C(C)C2=O)cc(OC)c1 (stereo not given) [3,5-dimethyl-5-(3,5-dimethoxybenzyl)-4-hydroxy-5H-thiophen-2-one] | > 1000 µM | > 1000 µM | > 1000 µM | > 1000 µM
CC1C(=O)SC(C)(Cc2ccc(F)cc2)C1=O (stereo not given) [3,5-dimethyl-5-(4-fluorobenzyl)-4-hydroxy-5H-thiophen-2-one] | > 1000 µM | > 1000 µM | > 1000 µM | > 100 µM
CCCCCCCC1(C)SC(=O)C(C)C1=O (stereo not given) [3,5-dimethyl-5-heptyl-4-hydroxy-5H-thiophen-2-one] | > 1000 µM | > 1000 µM | > 1000 µM | > 1000 µM
CCCCCCCCC1(C)SC(=O)C(C)C1=O (stereo not given) [4-Hydroxy-3,5-dimethyl-5-octyl-5H-thiophen-2-one] |  |  | > 100 µM | > 100 µM
COc1cccc(CC2(C)SC(=O)C(C)C2=O)c1 (stereo not given) [4-Hydroxy-5-(3-methoxy-benzyl)-3,5-dimethyl-5H-thiophen-2-one] | > 1000 µM | > 1000 µM | > 1000 µM | > 1000 µM
CC1C(=O)SC(C)(Cc2ccc(Cl)cc2Cl)C1=O (stereo not given) [5-(2,4-dichlorobenzyl)-3,5-dimethyl-4-hydroxy-5H-thiophen-2-one] |  |  |  | > 100 µM
CC1C(=O)SC(C)(Cc2ccc(Cl)c(Cl)c2)C1=O (stereo not given) [5-(3,4-dichlorobenzyl)-3,5-dimethyl-4-hydroxy-5H-thiophen-2-one] |  |  | > 100 µM | > 100 µM
CC(C)=CCC/C(C)=C/CC1(C)SC(=O)C(C)C1=O (stereo not given) [5-((E)-3,7-Dimethyl-octa-2,6-dienyl)-4-hydroxy-3,5-dimethyl-5H-thiophen-2-one] |  |  | 100 µM | 
CCCCCCCCCCC1(C)SC(=O)C(C)C1=O (stereo not given) [5-Decyl-4-hydroxy-3,5-dimethyl-5H-thiophen-2-one] |  |  | 100 µM | > 100 µM
CC1C(=O)SC(C)(C2CCCCC2)C1=O (stereo not given) [5-cyclohexyl-3,5-dimethyl-4-hydroxy-5H-thiophen-2-one] |  |  |  | > 100 µM
CC1C(=O)SC(C)(CC2CC2)C1=O (stereo not given) [5-cyclopropylmethyl-3,5-dimethyl-4-hydroxy-5H-thiophen-2-one] |  |  | > 100 µM | 
